Assay results as given in patent US9227921B2, “Salts and polymorphs of a tetracycline compound” (Paratek Pharmaceuticals, Inc., priority 2008, dated 2016).

Key:
Assay type in all cases: physicochemical
[1] = Temperature and moisture stability study (HPLC impurity profile)
Description: A stability study was conducted on tosylate salt and mesylate salt of Compound 1, by monitoring changes in the high performance liquid chromatography (HPLC) impurity profiles for each salt when exposed to various temperatures and/or humidity conditions. Each sample was placed in a closed container and exposed to three controlled environments: refrigerated (5° C.), 20° C. and 60% relative humidity, and 40° C. and 75% relative humidity. […] The stability study of the crystalline tosylate salt was continued.
Samples were analyzed by the following reversed-phase HPLC impurity profile method at time points 0, 1, 2, 4 weeks (Table 7) and 3 months (Table 8) for the tosylate salt; and 0, 1 and 2 weeks for the mesylate salt (Table 9).
(§1) Reversed-phase HPLC analysis was conducted using a SYMMETRY SHIELD RP18 column (4.6×250 mm, 5 µm particle size), although analysis using a similar or equivalent column would be expected to yield similar results. The mobile phase components were 0.01 M ammonium acetate in water at pH 3.3 (A) and acetonitrile (B). The mobile phase composition was a gradient that increased from 6% to 15% B in five minutes, held at 15% B for 15 minutes, increased from 15% to 60% B in ten minutes, then from 60% to 90% B in two minutes, and then the system was re-equilibrated at 6% B for four minutes. The flow rate was 1.0 mL/minute, and the injection volume was 10.0 μL. The column temperature was maintained at 30° C. Detection was by ultraviolet light (UV) at 280 nm. The retention time for Compound 1 was approximately 15.7 minutes. The sample solution was prepared in mobile phase A to a final concentration of 2.0 mg/mL.

[2] = Hygroscopicity by symmetric vapor sorption analyzer; settings: 95% RH, 25.0° C.
Description: The hygroscopicity of the subject crystalline tosylate salt was determined using a symmetric vapor sorption analyzer, and reported as wt % gained as a function of percent relative humidity (% RH) from 5% to 95% to 1%, at 5% intervals at 25.0° C. A maximum weight gain of 12 wt % at 95% RH, with slight hysteresis upon desorption, was observed, and a 2 wt % loss due to IPA was observed.

[3] = Water content and room temperature stability of crystalline tosylate salt
Description: Upon drying, water content in the crystalline tosylate salt of Compound 1 was calculated to be 0.5%. After standing at room temperature for 24 hours, this value increased to 5%. In contrast to the amorphous Compound 1, the crystalline tosylate salt of Compound 1 was stable for weeks and months at room temperature, maintaining a water content of approximately 5%.

[4] = Photostability study (HPLC impurity profile)
Description: as §1
A photostability study was conducted on the tosylate salt of Compound 1. Two samples were prepared in clear glass Petri dishes. One sample was wrapped in aluminum foil to serve as a control sample. Both samples were placed in the ES 2000 Environmental Light 10 Chamber and exposed to 12 kilolux of cool white fluorescent light for a total of 47 hours.

[5] = pH of crystalline tosylate salt in water; settings: 122.1 mg in 1.0 mL of water
Description: (§2) The solubilities were determined by mixing excess solids with solvent, at ambient temperature for two hours, followed by filtration of the supernatant. The supernatant concentration was determined by high-performance liquid chromatography (HPLC). […] The pH of 122.1 mg of the subject crystalline tosylate salt in 1.0 mL of water was determined to be 5.70.

[6] = Solubility of crystalline tosylate salt (excess solids, HPLC of supernatant); settings: for Solubility: ambient temperature, two hours
Description: as §2

[7] = room temperature, weeks and months
[8] = Control sample wrapped in aluminum foil, 47 hours in light chamber
[9] = Exposed to 12 kilolux cool white fluorescent light, 47 hours

## CN(C)c1cc(CNCC(C)(C)C)c(O)c2c1CC1CC3C(N(C)C)C(O)=C(C(N)=O)C(=O)C3(O)C(O)=C1C2=O.CS(=O)(=O)O (stereo not shown) [mesylate salt of Compound 1]
[1]; 1 week, 5° C.
  Compound 1: 98.2%
  RRT 1.19: 0.17%
  RRT 1.26 (beta-epimer): 1.6%
  RRT 1.77: 0.08%
  Total Impurities: 1.85%
[1]; 1 week, 20° C. & 60% RH
  Compound 1: 98.0%
  RRT 1.19: 0.17%
  RRT 1.26 (beta-epimer): 1.8%
  RRT 1.77: 0.09%
  Total Impurities: 2.06%
[1]; 1 week, 40° C. & 75% RH
  Compound 1: 97.1%
  RRT 0.52: 0.07%
  RRT 0.77: 0.05%
  RRT 1.19: 0.16%
  RRT 1.26 (beta-epimer): 2.6%
  RRT 1.77: 0.09%
  Total Impurities: 2.97%
[1]; 2 weeks, 5° C.
  Compound 1: 98.3%
  RRT 0.93: 0.06%
  RRT 1.19: 0.20%
  RRT 1.26 (beta-epimer): 1.3%
  RRT 1.77: 0.09%
  Total Impurities: 1.65%
[1]; 2 weeks, 20° C. & 60% RH
  Compound 1: 98.1%
  RRT 0.93: 0.06%
  RRT 1.19: 0.20%
  RRT 1.26 (beta-epimer): 0.11%
  RRT 1.77: 0.11%
  Total Impurities: 1.87%
[1]; 2 weeks, 40° C. & 75% RH
  Compound 1: 96.6%
  RRT 0.52: 0.05%
  RRT 0.77: 0.07%
  RRT 0.93: 0.06%
  RRT 1.19: 0.19%
  RRT 1.26 (beta-epimer): 0.11%
  RRT 1.77: 0.11%
  Total Impurities: 3.38%
[1]; 5° C.
  stability: unstable
[1]; Initial
  Compound 1: 98.3%
  RRT 1.19: 0.20%
  RRT 1.26 (beta-epimer): 1.5%
  Total Impurities: 1.70%

## CN(C)c1cc(CNCC(C)(C)C)c(O)c2c1CC1CC3C(N(C)C)C(O)=C(C(N)=O)C(=O)C3(O)C(O)=C1C2=O.Cc1ccc(S(=O)(=O)O)cc1 (stereo not shown) [tosylate salt of Compound 1]
[2]
  maximum weight gain (hygroscopicity): 12 wt %
[3]; after standing at room temperature for 24 hours
  water content: 5%
[3]; [7]
  stability at room temperature: stable
  water content maintained: approximately 5%
[3]; upon drying
  water content: 0.5%
[4]; [8]
  Compound 1: 98.2%
  RRT 0.52: 0.06%
  RRT 0.77: 0.08%
  RRT 0.93: 0.12%
  RRT 1.19: 0.26%
  RRT 1.26: 1.2%
  RRT 1.77: 0.16%
[4]; [9]
  Compound 1: 98.2%
  RRT 0.52: 0.06%
  RRT 0.77: 0.09%
  RRT 0.93: 0.13%
  RRT 1.19: 0.26%
  RRT 1.26: 1.1%
  RRT 1.77: 0.16%
[5]
  pH: 5.70
[6]; 56.8 mg in 0.5 mL water
  Equilibration in water (appearance): clear solutions
[6]; 122.1 mg in 1.0 mL water
  Equilibration in water (appearance): clear solutions
[6]; Acetonitrile
  Solubility: 5.9 mg/mL
[6]; IPA
  Solubility: 5.8 mg/mL
[6]; Methanol
  Solubility: 86.1 mg/mL
[6]; Water
  Solubility: >100 mg/mL
[1]; 0 month, 20° C. & 60% RH
  4-keto compound RRT = 1.57: 0.05%
  Beta-epimer RRT = 1.26: 1.76%
  Total impurity: 2.12%
[1]; 0 month, 40° C. & 75% RH
  4-keto compound RRT = 1.57: 0.05%
  Beta-epimer RRT = 1.26: 1.76%
  Total impurity: 2.12%
[1]; 1 week, 5° C.
  Compound 1: 98.5%
  RRT 0.52: 0.09%
  RRT 1.19: 0.21%
  RRT 1.26 (beta-epimer): 1.1%
  RRT 1.77: 0.11%
  Total Impurities: 1.51
[1]; 1 week, 20° C. & 60% RH
  Compound 1: 98.3%
  RRT 0.52: 0.09%
  RRT 1.19: 0.21%
  RRT 1.26 (beta-epimer): 1.2%
  RRT 1.77: 0.12%
  Total Impurities: 1.63
[1]; 1 week, 40° C. & 75% RH
  Compound 1: 98.2%
  RRT 0.52: 0.09%
  RRT 0.77: 0.05%
  RRT 1.19: 0.21%
  RRT 1.26 (beta-epimer): 1.3%
  RRT 1.77: 0.14%
  Total Impurities: 1.80
[1]; 2 weeks, 5° C.
  Compound 1: 98.4%
  RRT 0.52: 0.08%
  RRT 0.93: 0.08%
  RRT 1.19: 0.24%
  RRT 1.26 (beta-epimer): 1.1%
  RRT 1.77: 0.12%
  Total Impurities: 1.62
[1]; 2 weeks, 20° C. & 60% RH
  Compound 1: 98.4%
  RRT 0.52: 0.08%
  RRT 0.93: 0.08%
  RRT 1.19: 0.25%
  RRT 1.26 (beta-epimer): 1.1%
  RRT 1.77: 0.15%
  Total Impurities: 1.66
[1]; 2 weeks, 40° C. & 75% RH
  Compound 1: 98.3%
  RRT 0.52: 0.08%
  RRT 0.93: 0.09%
  RRT 1.19: 0.25%
  RRT 1.26 (beta-epimer): 1.1%
  RRT 1.77: 0.16%
  Total Impurities: 1.68
[1]; 3 month, 20° C. & 60% RH
  4-keto compound RRT = 1.57: 0.10%
  Beta-epimer RRT = 1.26: 1.74%
  M-2 impurity RRT = 0.84: 0.18%
  Total impurity: 2.86%
[1]; 3 month, 40° C. & 75% RH
  4-keto compound RRT = 1.57: 0.14%
  Beta-epimer RRT = 1.26: 1.66%
  M-2 impurity RRT = 0.84: 0.31%
  Total impurity: 3.12%
[1]; 4 weeks, 5° C.
  Compound 1: 98.3%
  RRT 0.52: 0.09%
  RRT 0.77: 0.08%
  RRT 0.93: 0.07%
  RRT 1.19: 0.23%
  RRT 1.26 (beta-epimer): 1.0%
  RRT 1.77: 0.14%
  Total Impurities: 1.61
[1]; 4 weeks, 20° C. & 60% RH
  Compound 1: 98.2%
  RRT 0.52: 0.10%
  RRT 0.77: 0.10%
  RRT 0.93: 0.12%
  RRT 1.19: 0.24%
  RRT 1.26 (beta-epimer): 1.1%
  RRT 1.77: 0.18%
  Total Impurities: 1.84
[1]; 4 weeks, 40° C. & 75% RH
  Compound 1: 98.1%
  RRT 0.52: 0.10%
  RRT 0.77: 0.17%
  RRT 0.93: 0.13%
  RRT 1.19: 0.26%
  RRT 1.26 (beta-epimer): 1.1%
  RRT 1.77: 0.20%
  Total Impurities: 1.96
[1]; Initial
  Compound 1: 98.4%
  RRT 0.52: 0.06%
  RRT 1.19: 0.24%
  RRT 1.26 (beta-epimer): 1.2%
  RRT 1.77: 0.10%
  Total Impurities: 1.60
[1]; after two weeks, 5° C., 20° C. & 60% RH, 40° C. & 75% RH
  relative stability among crystalline forms: most stable crystalline form
[1]; refrigerated and/or 20° C. & 60% RH, at least four weeks
  storage stability: stable
